Assay results reported in patent US20240190849A1, “AMINOPYRIMIDINE COMPOUNDS AND METHODS OF THEIR USE” (TYRA BIOSCIENCES, INC., priority 2021, published 2024).

Key:
[1] = target: T1, FGFR3 (Homo sapiens, UniProt P22607); assay: Kinase binding assay (kinase-tagged T7 phage, affinity beads, qPCR readout), FGFR3; settings: FGFR binding data
T1 construct: made in house; host or cells: E. coli derived from BL21, infected with T7 phage
Outline: (§1)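 First, streptavidin beads were loaded with biotinylated ligand and blocked. Kinase, beads and compound were then shaken together for 1 hour at room temperature in SeaBlock/PBS/Tween/DTT buffer. Finally, eluted kinase was measured by qPCR and Kd fitted with Hill slope −1.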

[2] = target: T2, FGFR1 (Homo sapiens, UniProt P11362); assay: Kinase binding assay (kinase-tagged T7 phage, affinity beads, qPCR readout), FGFR1; settings: FGFR binding data
T2 construct: made in house; host or cells: E. coli derived from BL21, infected with T7 phage
T2 sequence (P11362 22-822): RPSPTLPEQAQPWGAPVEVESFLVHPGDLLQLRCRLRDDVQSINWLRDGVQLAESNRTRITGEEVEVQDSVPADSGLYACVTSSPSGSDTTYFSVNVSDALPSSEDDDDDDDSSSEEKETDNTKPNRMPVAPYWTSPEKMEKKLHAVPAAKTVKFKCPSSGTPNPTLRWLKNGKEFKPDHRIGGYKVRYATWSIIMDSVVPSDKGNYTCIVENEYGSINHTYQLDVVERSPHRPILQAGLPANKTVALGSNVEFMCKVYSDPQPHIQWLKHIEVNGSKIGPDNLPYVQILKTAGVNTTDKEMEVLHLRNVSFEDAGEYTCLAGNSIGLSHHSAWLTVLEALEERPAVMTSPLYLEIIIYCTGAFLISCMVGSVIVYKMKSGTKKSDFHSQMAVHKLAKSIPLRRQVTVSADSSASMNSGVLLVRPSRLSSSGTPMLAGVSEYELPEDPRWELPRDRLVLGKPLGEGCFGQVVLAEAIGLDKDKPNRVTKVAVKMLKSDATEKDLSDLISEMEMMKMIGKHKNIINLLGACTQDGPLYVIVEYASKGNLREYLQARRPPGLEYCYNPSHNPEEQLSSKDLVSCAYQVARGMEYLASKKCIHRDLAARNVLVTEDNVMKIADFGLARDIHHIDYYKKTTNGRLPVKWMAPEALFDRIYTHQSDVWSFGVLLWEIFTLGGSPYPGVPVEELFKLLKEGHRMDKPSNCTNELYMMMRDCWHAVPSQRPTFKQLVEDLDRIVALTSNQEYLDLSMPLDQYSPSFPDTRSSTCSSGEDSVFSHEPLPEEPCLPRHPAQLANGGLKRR
Outline: as §1

[3] = system: UM-UC-14 (Bladder Cancer), FGFR3(S249C); assay: Cancer cell viability assay (Cell Titer-Glo), UM-UC-14; type: cell-based; settings: UMUC14, UM-UC-14 cells, 72 hours
Excerpt: (§2) RT112/84, UM-UC-14, SNU-16 and KG-1 Cancer Cell Line Cell Viability Assays
(§3) To detect the change of intracellular ATP by Cell Titer-Glo@ and to evaluate the inhibitory effect of the compounds on cancer cell lines by determining the in vitro IC50 value of the compounds.
(§4) Cell Titer-Glo@ 2.0 Luminescent cell viability assay reagent was purchased from Promega (Madison, WI). RT112/84, SNU-16, and KG-1 cell lines were purchased from American Type Culture Collection (Manassas, VA). UM-UC-14 cell line was purchased from Sigma (St. Louis, MO). RT112/84, UM-UC-14, SNU-16, and KG-1 cells were cultured in RPMI1640 media supplemented with 10% fetal bovine serum. Cultures were maintained at 37° C. in a humidified atmosphere of 5% CO2 and 95% air.
(§5) Cell Viability Assay Procedure: Cells were plated in 96-well clear bottom/white plates (Corning #3903) at 10,000 cells/well in 100 μl of media, incubated overnight. The next day, test compound DMSO stock solutions were made at 10 mM and 2 μM final concentration. Compounds were then added to cells in a 9-dose, […] dilution series starting at 30 μM with an HP 300e Digital Dispenser (each dose was applied in triplicate). DMSO was backfilled to each well up to 301 nL total volume of test compound+DMSO, and a total of 301 nL DMSO was added to a control/no test compound well in triplicate. The cells in cell culture plates were incubated with the compounds at 37° C. and 5% CO2 for 72 hours. Then 50 μl of Cell Titer Glo 2.0 reagent was added to each well of the cell culture plates. The contents were covered from light and mixed on an orbital shaker at room temperature for 10 min. Luminescence was recorded by a Synergy H1 Microplate Reader (Biotek, Winooski, VT). Cells were assessed as a percentage of DMSO only treated control cells. Curves were plotted and IC50 values were calculated using the GraphPad Prism 8 program based on a sigmoidal dose-response equation (4 parameter).

[4] = target: T3, FGFR3 (V555M) (Homo sapiens, UniProt P22607, V555M); assay: Kinase binding assay (kinase-tagged T7 phage, affinity beads, qPCR readout), FGFR3 (V555M); settings: FGFR binding data
T3 construct: made in house; host or cells: E. coli derived from BL21, infected with T7 phage
T3 sequence (P22607 23-806 V555M): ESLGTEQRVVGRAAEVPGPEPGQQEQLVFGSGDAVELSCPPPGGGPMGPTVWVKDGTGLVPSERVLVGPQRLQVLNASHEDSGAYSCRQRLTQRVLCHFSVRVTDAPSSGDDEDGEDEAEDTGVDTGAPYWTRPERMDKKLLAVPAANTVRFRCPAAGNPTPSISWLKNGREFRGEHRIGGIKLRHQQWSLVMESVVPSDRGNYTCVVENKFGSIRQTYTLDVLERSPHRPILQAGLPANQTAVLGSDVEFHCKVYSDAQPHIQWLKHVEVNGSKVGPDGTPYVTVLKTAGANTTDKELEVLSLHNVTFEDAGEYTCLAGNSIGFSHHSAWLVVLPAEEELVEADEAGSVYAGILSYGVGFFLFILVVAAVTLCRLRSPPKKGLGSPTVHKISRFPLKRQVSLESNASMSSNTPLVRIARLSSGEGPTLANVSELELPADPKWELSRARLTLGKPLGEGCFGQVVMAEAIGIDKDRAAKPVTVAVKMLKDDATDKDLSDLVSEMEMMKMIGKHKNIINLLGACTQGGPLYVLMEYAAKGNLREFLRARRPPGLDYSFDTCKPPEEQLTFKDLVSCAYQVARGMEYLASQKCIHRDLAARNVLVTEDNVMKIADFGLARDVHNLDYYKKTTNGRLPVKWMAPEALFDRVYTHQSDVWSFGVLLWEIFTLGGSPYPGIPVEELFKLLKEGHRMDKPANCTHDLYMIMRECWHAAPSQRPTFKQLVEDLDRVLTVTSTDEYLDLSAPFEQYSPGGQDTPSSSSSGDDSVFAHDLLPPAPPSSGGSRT
Outline: as §1

[5] = system: RT112/84 (Bladder Cancer), FGFR3-TACC3 fusion; assay: Cancer cell viability assay (Cell Titer-Glo), RT112/84; type: cell-based; settings: Homo sapiens, RT112/84 cells, 72 hours
Excerpt: as §2, §3, §4, §5

[6] = system: KG-1 (Acute Myeloid Leukemia), FGFR1OP2-FGFR1 fusion; assay: Cancer cell viability assay (Cell Titer-Glo), KG-1; type: cell-based; settings: Homo sapiens, KG-1 cells, 72 hours
Excerpt: as §2, §3, §4, §5

[7] = target: T4, FGFR2 (Homo sapiens, UniProt P21802); assay: Kinase binding assay (kinase-tagged T7 phage, affinity beads, qPCR readout), FGFR2; settings: FGFR binding data
T4 construct: made in house; host or cells: E. coli derived from BL21, infected with T7 phage
T4 sequence (P21802 22-821): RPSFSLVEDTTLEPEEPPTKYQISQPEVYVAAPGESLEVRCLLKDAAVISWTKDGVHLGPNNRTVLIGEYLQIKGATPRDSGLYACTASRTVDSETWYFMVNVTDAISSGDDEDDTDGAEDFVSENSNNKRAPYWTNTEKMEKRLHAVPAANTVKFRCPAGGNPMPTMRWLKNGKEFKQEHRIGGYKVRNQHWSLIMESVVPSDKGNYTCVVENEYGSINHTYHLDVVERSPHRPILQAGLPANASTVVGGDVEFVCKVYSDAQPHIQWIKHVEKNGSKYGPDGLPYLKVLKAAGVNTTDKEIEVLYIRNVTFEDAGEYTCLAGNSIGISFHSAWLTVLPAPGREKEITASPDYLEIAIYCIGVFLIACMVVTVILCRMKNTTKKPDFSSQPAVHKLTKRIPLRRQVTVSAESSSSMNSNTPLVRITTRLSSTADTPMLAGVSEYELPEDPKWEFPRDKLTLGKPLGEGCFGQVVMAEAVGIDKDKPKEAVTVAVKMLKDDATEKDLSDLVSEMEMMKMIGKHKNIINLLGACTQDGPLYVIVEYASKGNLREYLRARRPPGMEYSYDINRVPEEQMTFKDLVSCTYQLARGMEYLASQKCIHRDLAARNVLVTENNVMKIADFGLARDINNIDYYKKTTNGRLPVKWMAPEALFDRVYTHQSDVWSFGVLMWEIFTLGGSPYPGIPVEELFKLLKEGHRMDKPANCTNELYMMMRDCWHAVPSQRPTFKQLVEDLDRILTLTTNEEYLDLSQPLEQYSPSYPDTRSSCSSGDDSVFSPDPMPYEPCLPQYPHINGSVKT
Outline: as §1

T1 sequence (P22607 23-806): as the sequence (P22607 23-806 V555M) above, with M533V counted along it

Structure (SMILES)	Kd [1] [nM]	Kd [2] [nM]	IC50 [3] [nM]	Kd [4] [nM]	IC50 [5] [nM]	IC50 [6] [nM]	Kd [7] [nM]
C=CC(=O)Nc1ccc2c(c1)c(C)cn2-c1nc(Nc2cnn(C)c2)ncc1Cl [Example 25, N-[1-[5-chloro-2-[(1-methylpyrazol-4-yl)amino]pyrimidin-4-yl]-3-methyl-indol-5-yl]prop-2-enamide]	0.1 to 100	0.1 to 100	0.1 to 100	0.1 to 100	0.1 to 100	0.1 to 100	0.1 to 100
C=CC(=O)Nc1cnc2c(c1)c(C)cn2-c1nc(Nc2ccnn2C)ncc1C [Example 85, N-[3-methyl-1-[5-methyl-2-[(2-methylpyrazol-3-yl)amino]pyrimidin-4-yl]pyrrolo[2,3-b]pyridin-5-yl]prop-2-enamide]	0.1 to 100	0.1 to 100	0.1 to 100	0.1 to 100	0.1 to 100	0.1 to 100	0.1 to 100
C=CC(=O)Nc1ccc2c(c1)c(C)cn2-c1nc(Nc2ccn(C)n2)ncc1C [Example 81, N-[3-methyl-1-[5-methyl-2-[(1-methylpyrazol-3-yl)amino]pyrimidin-4-yl]indol-5-yl]prop-2-enamide]	0.1 to 100	0.1 to 100	0.1 to 100	0.1 to 100	0.1 to 100	0.1 to 100	0.1 to 100
C=CC(=O)Nc1ccc2c(c1)c(C)cn2-c1nc(Nc2cccc(OCCN3CCOCC3)c2)ncc1C [Example 9, N-[3-methyl-1-[5-methyl-2-[3-(2-morpholinoethoxy)anilino]pyrimidin-4-yl]indol-5-yl]prop-2-enamide]	0.1 to 100	0.1 to 100	0.1 to 100	0.1 to 100	0.1 to 100	0.1 to 100	0.1 to 100
C=CC(=O)Nc1ccc2c(c1)c(C)cn2-c1nc(Nc2cn(C)nc2C)ncc1Cl [Example 35, N-[1-[5-chloro-2-[(1,3-dimethylpyrazol-4-yl)amino]pyrimidin-4-yl]-3-methyl-indol-5-yl]prop-2-enamide]	0.1 to 100	0.1 to 100	0.1 to 100	0.1 to 100	0.1 to 100	0.1 to 100	0.1 to 100

The next lines start with the values.

Kd [1] [nM]	Kd [2] [nM]	IC50 [3] [nM]	Kd [4] [nM]	IC50 [5] [nM]	IC50 [6] [nM]	Kd [7] [nM]	Structure (SMILES)
0.1 to 100	0.1 to 100	0.1 to 100	0.1 to 100	0.1 to 100	0.1 to 100	0.1 to 100	C=CC(=O)Nc1ccc2c(c1)c(C)cn2-c1nc(Nc2ccc(N3CCOCC3)cc2)ncc1Cl [Example 24, N-[3-methyl-1-[5-chloro-2-(4-morpholinoanilino)pyrimidin-4-yl]indol-5-yl]prop-2-enamide]
0.1 to 100	0.1 to 100	0.1 to 100	0.1 to 100	0.1 to 100	0.1 to 100	0.1 to 100	C=CC(=O)Nc1ccc2c(c1)c(C)cn2-c1nc(Nc2ccc(OCCN3CCOCC3)cc2)ncc1C [Example 19, N-[3-methyl-1-[5-methyl-2-[4-(2-morpholinoethoxy)anilino]pyrimidin-4-yl]indol-5-yl]prop-2-enamide]
0.1 to 100	0.1 to 100	0.1 to 100	0.1 to 100	0.1 to 100	0.1 to 100	0.1 to 100	C=CC(=O)Nc1ccc2c(c1)c(C)cn2-c1nc(Nc2ccc(N3CCOCC3)c(F)c2)ncc1Cl [Example 22, N-[1-[5-chloro-2-(3-fluoro-4-morpholino-anilino)pyrimidin-4-yl]-3-methyl-indol-5-yl]prop-2-enamide]
0.1 to 100	0.1 to 100	0.1 to 100	0.1 to 100	0.1 to 100	0.1 to 100	0.1 to 100	C=CC(=O)Nc1ccc2c(-c3nc(Nc4ccc(N5CCOCC5)cc4)ncc3F)cn(C)c2c1 [Example 57, N-[3-[5-Fluoro-2-(4-morpholinoanilino)pyrimidin-4-yl]-1-methyl-indol-6-yl]prop-2-enamide]
